Experimental data: the Deep4Chem optical property database
Several values for one entry are separate records, joined by “and”; a condition that tells them apart may be missing. Identical values can stand only once. Blank lines part the entries; values can stand above or below the compound they belong to.

Experiment: photoluminescence quantum yield (fraction); solvent given as SMILES

- photoluminescence quantum yield (in ClC(Cl)Cl): 0.19
Structure (SMILES): CCCCc1ccc(-n2c3c4cc(F)ccc4nc(-c4ccc(OC)cc4)c3c3c2c2c(-c4ccc(OC)cc4)nc4ccc(F)cc4c2n3-c2ccc(CCCC)cc2)cc1

- photoluminescence quantum yield (in O): 0.04
Structure (SMILES): CN1/C(=C/C=C/C2=[N+](CCCCCC(=O)O)c3ccc(S(=O)(=O)[O-])cc3C2(C)C)C(C)(C)c2cc(S(=O)(=O)[O-])ccc21

- photoluminescence quantum yield (in ClCCl): 0.785
Structure (SMILES): CC1=C(c2ccccc2)C(C)=[N+]2C1=C(c1c(-c3ccccn3)nc3ccccn13)c1c(C)c(-c3ccccc3)c(C)n1[B-]2(F)F

- photoluminescence quantum yield (in ClC(Cl)Cl): 0.71
Structure (SMILES): N#Cc1nc(N(Cc2ccc(Br)cc2)Cc2ccc(Br)cc2)c(C#N)nc1N(Cc1ccc(Br)cc1)Cc1ccc(Br)cc1

- photoluminescence quantum yield (in CC#N): 0.22
- photoluminescence quantum yield (in CCO): 0.34
- photoluminescence quantum yield (in CO): 0.33
- photoluminescence quantum yield (in ClC(Cl)Cl): 0.48
Structure (SMILES): CCNc1cc2c(cc1C)C(c1ccccc1C(=O)O)=C1CCCC(/C=C/C3=[N+](C)c4ccc5ccccc5c4C3(C)C)=C1O2

- photoluminescence quantum yield (in ClCCl): 0.42
Structure (SMILES): CN(C)c1ccc(C#Cc2cc(C#Cc3ccc(C(F)(F)F)cc3)c3ccc4c(C#Cc5ccc(C(F)(F)F)cc5)cc(C#Cc5ccc(N(C)C)cc5)c5ccc2c3c54)cc1

- photoluminescence quantum yield (in ClC(Cl)Cl): 0.23
Structure (SMILES): c1ccc(N(c2ccccc2)c2ccc(-c3ccc(-c4ccc(-c5ccc(-c6ccc(N(c7ccccc7)c7ccccc7)cc6)s5)c5nsnc45)s3)cc2)cc1

Structure (SMILES): CCCCCCCCCC1(CCCCCCCCC)c2cc(C#Cc3ccc(C#Cc4ccc(N(CCCCCC)CCCCCC)cc4)cc3)ccc2-c2ccc(C#Cc3ccc(C#Cc4ccc(N(CCCCCC)CCCCCC)cc4)cc3)cc21
- photoluminescence quantum yield (in Cc1ccccc1): 0.82

Structure (SMILES): COc1ccccc1C1=C2C(C)=CC(C)=[N+]2[B-](F)(F)n2c(C)cc(C)c21
- photoluminescence quantum yield (in C1CCOC1): 0.87
- photoluminescence quantum yield (in CC#N): 0.57
- photoluminescence quantum yield (in CC(=O)C(C)(C)C): 0.74
- photoluminescence quantum yield (in CC(C)=O): 0.78
- photoluminescence quantum yield (in CCCCCC): 0.98
- photoluminescence quantum yield (in CCOC(C)=O): 0.76
- photoluminescence quantum yield (in CO): 0.69

- photoluminescence quantum yield (in ClCCl): 0.51
Structure (SMILES): COc1ccc(-c2c3ccccc3c(C#Cc3ccccc3)c3ccccc23)cc1

Structure (SMILES): c1ccc([B-]2(c3ccccc3)Oc3ccc4ccccc4c3-c3c4ccccc4cc[n+]32)cc1
- photoluminescence quantum yield (in Cc1ccccc1): 0.32

- photoluminescence quantum yield (in C1CCOC1): 0.38
Structure (SMILES): Clc1cnc2nn3ccccc3c2n1

- photoluminescence quantum yield (in CC#N): 0.07
Structure (SMILES): Cc1cccc2nc3c(=O)n(C)c(=O)nc-3n(C)c12

Structure (SMILES): CCCCCCc1ccc(-n2c3[n+](c4c5ccccc5c5ccccc5c42)[B-](C)(C)c2cc(-n4c5ccccc5c5ccccc54)ccc2-3)cc1
- photoluminescence quantum yield (in C1CCOC1): 0.82
- photoluminescence quantum yield (in CC#N): 0.71
- photoluminescence quantum yield (in Cc1ccccc1): 0.76
- photoluminescence quantum yield (in ClCCl): 0.83

- photoluminescence quantum yield (in CC#N): 0.18
Structure (SMILES): Fc1cccc(-[c+]2c3ccccc3oc3ccccc32)c1

- photoluminescence quantum yield (in C1CCCCC1): 0.51
- photoluminescence quantum yield (in CC#N): 0.19
- photoluminescence quantum yield (in ClC(Cl)Cl): 0.49
Structure (SMILES): c1cc2ccc1CCCc1ccc(c3nsnc13)CCC2

Structure (SMILES): CN(C)c1ccc(/C=C2\CC/C(=C\c3ccc(N(C)C)cc3)C2=O)cc1
- photoluminescence quantum yield (in C1CCOC1): 0.089
- photoluminescence quantum yield (in C1COCCO1): 0.08
- photoluminescence quantum yield (in CC#N): 0.11
- photoluminescence quantum yield (in CC(C)=O): 0.15
- photoluminescence quantum yield (in CC(C)O): 0.18
- photoluminescence quantum yield (in CCO): 0.11
- photoluminescence quantum yield (in CCOC(C)=O): 0.09
- photoluminescence quantum yield (in CN(C)C=O): 0.19
- photoluminescence quantum yield (in CO): 0.025
- photoluminescence quantum yield (in CS(C)=O): 0.2
- photoluminescence quantum yield (in Cc1ccccc1): 0.08
- photoluminescence quantum yield (in ClC(Cl)(Cl)Cl): 0.043
- photoluminescence quantum yield (in ClC(Cl)Cl): 0.13
- photoluminescence quantum yield (in ClCCl): 0.16
- photoluminescence quantum yield (in S=C=S): 0.1

- photoluminescence quantum yield (in ClCCl): 0.76
Structure (SMILES): COc1cc(-c2cnc(-c3cnc4ccccc4c3)o2)cc(OC)c1OC

- photoluminescence quantum yield (in C1CCOC1): 0.064
Structure (SMILES): CC(C)(C)c1ccc(-c2c(-c3cccc(-n4c5ccccc5c5ccccc54)c3)c(C#N)c(-c3cccc(-n4c5ccccc5c5ccccc54)c3)c(-c3ccc(C(C)(C)C)cc3)c2-c2ccc(C(C)(C)C)cc2)cc1

- photoluminescence quantum yield (in ClCCl): 0.21
Structure (SMILES): CCOC(=O)c1sc(-c2ccc(-c3cc(C4CC4)c(C(=O)OCC)s3)s2)cc1C1CC1

- photoluminescence quantum yield (in CCO): 0.0075
- photoluminescence quantum yield (in ClCCl): 0.017
- photoluminescence quantum yield (in O): 0.01
Structure (SMILES): Oc1c(-c2cccs2)cccc1-c1nc2ccccc2s1

- photoluminescence quantum yield (in C1CCCCC1): 0.57
Structure (SMILES): C1=Cc2ccc3ccccc3c2NB1c1ccccc1

- photoluminescence quantum yield (in c1ccccc1): 0.198
Structure (SMILES): Cc1nc2c(ccc3ccccc32)oc1=O

- photoluminescence quantum yield (in C1CCCCC1): 0.11
Structure (SMILES): CCCCCCCCOc1ccc(C2=C(c3ccc(OCCCCCCCC)cc3)C(C)(C)c3ccccc32)cc1

- photoluminescence quantum yield (in C1CCOC1): 0.27
Structure (SMILES): c1cc2ccc1-c1ccc(cc1)-c1ccc(s1)-c1ccc(cc1)-c1ccc(cc1)-c1ccc(s1)-c1ccc(cc1)-c1ccc(cc1)-c1ccc-2s1

Structure (SMILES): CCn1c2ccccc2c2cc(-c3cc(-c4ccc5c(c4)c4ccccc4n5CC)nc(-c4ccc(OC)cc4)n3)ccc21
- photoluminescence quantum yield (in C1CCOC1): 0.45
- photoluminescence quantum yield (in CCOC(C)=O): 0.56
- photoluminescence quantum yield (in CN(C)C=O): 0.68
- photoluminescence quantum yield (in Cc1ccccc1): 0.54
- photoluminescence quantum yield (in ClCCl): 0.42

- photoluminescence quantum yield (in CCO): 0.86
Structure (SMILES): CC(C)(C)OC(=O)NC(C(=O)OCc1ccc2c3cccc4cccc(c5cccc1c52)c43)c1c[nH]c2ccccc12 (stereo not drawn)

Structure (SMILES): CCCCN1c2ccccc2Sc2cc(/C=C/c3nc4nc5ccccc5nc4s3)ccc21
- photoluminescence quantum yield (in C1CCCCC1): 0.27
- photoluminescence quantum yield (in C1CCOC1): 0.01
- photoluminescence quantum yield (in C1COCCO1): 0.07
- photoluminescence quantum yield (in CC#N): 0
- photoluminescence quantum yield (in CC(C)=O): 0.001
- photoluminescence quantum yield (in CC(C)O): 0
- photoluminescence quantum yield (in CCOC(C)=O): 0.02
- photoluminescence quantum yield (in CCOCC): 0.05
- photoluminescence quantum yield (in CO): 0
- photoluminescence quantum yield (in CS(C)=O): 0
- photoluminescence quantum yield (in Cc1ccccc1): 0.08
- photoluminescence quantum yield (in ClCCl): 0.008

- photoluminescence quantum yield (in CO): 0.088
Structure (SMILES): CC1(C)C(/C=C/C2=C(c3ccc(C(=O)O)cc3)C(=C/C=C3/N(CCCS(=O)(=O)[O-])c4ccc5ccccc5c4C3(C)C)/CCC2)=[N+](CCCS(=O)(=O)[O-])c2ccc3ccccc3c21

- photoluminescence quantum yield (in ClCCl): 0.9
Structure (SMILES): FC(F)(F)c1ccc(B2c3ccccc3Nc3ccccc32)c(C(F)(F)F)c1

- photoluminescence quantum yield (in CO): 0.07
Structure (SMILES): c1ccc(N(c2ccccc2)c2ccc(-c3ncc(-c4ccncc4)s3)cc2)cc1

- photoluminescence quantum yield (in C1CCCCC1): 0.55
- photoluminescence quantum yield (in CC#N): 0.04
- photoluminescence quantum yield (in CO): 0.14
- photoluminescence quantum yield (in ClC(Cl)Cl): 0.08
Structure (SMILES): CC1(C)CC(NCc2ccc3ccc4cccc5ccc2c3c45)CC(C)(C)N1

- photoluminescence quantum yield (in ClC(Cl)Cl): 0.2
Structure (SMILES): F[B-]1(F)n2c(ccc2-c2ccccc2)C(c2ccc(I)cc2)=C2C=CC(c3ccccc3)=[N+]21

- photoluminescence quantum yield (in ClCCl): 0.59
Structure (SMILES): CCN(CC)c1ccc2cc(-c3ccc(-c4ccc(-c5cc6ccccc6oc5=O)cc4)cc3)c(=O)oc2c1

- photoluminescence quantum yield (in CC1CCCCC1): 0.43
- photoluminescence quantum yield (in CC#N): 0.35
Structure (SMILES): C(=C\c1c2ccccc2cc2ccccc12)/c1cccc2ccccc12

- photoluminescence quantum yield (in C1CCCCC1): 0.86
Structure (SMILES): CCCC1(CCC)c2cc(-c3ccco3)ccc2-c2ccc(-c3ccco3)cc21

- photoluminescence quantum yield (in CCOC(C)=O): 0.99
Structure (SMILES): CCn1c(-c2ccc(-c3ccc4ccc5cccc6ccc3c4c56)cc2)c(-c2ccc3ccccc3c2)c(-c2ccc3ccccc3c2)c1-c1ccc(-c2ccc3ccc4cccc5ccc2c3c45)cc1

- photoluminescence quantum yield (in ClCCl): 0.635
Structure (SMILES): CC1=CC(C)=[N+]2C1=C(c1c(-c3ccccn3)nc3ccccn13)c1c(C)cc(C)n1[B-]2(F)F

Structure (SMILES): O=[N+]([O-])c1ccc(NCCNCc2c3ccccc3cc3ccccc23)c([N+](=O)[O-])c1
- photoluminescence quantum yield (in C1CCCCC1): 0.0003
- photoluminescence quantum yield (in C1CCOC1): 0.00044
- photoluminescence quantum yield (in CC#N): 0.00168
- photoluminescence quantum yield (in CC(C)=O): 0.0024
- photoluminescence quantum yield (in CCO): 0.0363
- photoluminescence quantum yield (in CN(C)C=O): 0.00369
- photoluminescence quantum yield (in CO): 0.0334
- photoluminescence quantum yield (in ClC(Cl)Cl): 0.0061

Structure (SMILES): COc1ccc(-c2nc3ccccc3nc2/C=C/N2CCCC2)s1
- photoluminescence quantum yield (in C1CCCCC1): 0.072
- photoluminescence quantum yield (in C1CCOC1): 0.155
- photoluminescence quantum yield (in CC#N): 0.21
- photoluminescence quantum yield (in CC(C)=O): 0.209
- photoluminescence quantum yield (in CCO): 0.031
- photoluminescence quantum yield (in CO): 0.009
- photoluminescence quantum yield (in CS(C)=O): 0.184
- photoluminescence quantum yield (in Cc1ccccc1): 0.095
- photoluminescence quantum yield (in ClCCl): 0.19

Structure (SMILES): COc1ccc(/C=C2\OC(=O)c3ccccc32)cc1
- photoluminescence quantum yield (in CC(C)=O): 0.01
- photoluminescence quantum yield (in CC(C)CO): 0.07
- photoluminescence quantum yield (in CC(C)O): 0.1
- photoluminescence quantum yield (in CCCO): 0.13
- photoluminescence quantum yield (in CCO): 0.14
- photoluminescence quantum yield (in CCOC(C)=O): 0.008
- photoluminescence quantum yield (in CCOCC): 0.001
- photoluminescence quantum yield (in CO): 0.14

- photoluminescence quantum yield (in ClC(Cl)Cl): 0.016
Structure (SMILES): CC(C)(C)c1ccc2oc3nc4oc5ccc(N6c7ccccc7Sc7ccccc76)cc5c4cc3c2c1

- photoluminescence quantum yield (in C1CCOC1): 0.02
Structure (SMILES): COC(=O)c1ccc(-c2ccc3c(c2)C(=O)c2cc(-c4ccc(C(=O)OC)cc4)ccc2-3)cc1

- photoluminescence quantum yield (in C1COCCO1): 0.004
Structure (SMILES): COc1ccc(C2=C/C(=C\c3ccccc3)C(=O)O2)cc1OC

- photoluminescence quantum yield (in ClC(Cl)Cl): 0.53
Structure (SMILES): CCCCCCCCn1c(=O)c2cc3c(C#Cc4ccc(N(c5ccccc5)c5ccccc5)cc4)c4cc5c(=O)n(CCCCCCCC)c(=O)c5cc4c(C#Cc4ccc(N(c5ccccc5)c5ccccc5)cc4)c3cc2c1=O

- photoluminescence quantum yield (in C1CCOC1): 0.34
Structure (SMILES): CCC1(CC)c2cc(B(c3c(C)cc(C)cc3C)c3c(C)cc(C)cc3C)ccc2-c2c1c1c(c3c2C(CC)(CC)c2cc(B(c4c(C)cc(C)cc4C)c4c(C)cc(C)cc4C)ccc2-3)C(CC)(CC)c2cc(B(c3c(C)cc(C)cc3C)c3c(C)cc(C)cc3C)ccc2-1

- photoluminescence quantum yield (in C1CCCCC1): 0.016
- photoluminescence quantum yield (in C1CCOC1): 0.016
- photoluminescence quantum yield (in C1COCCO1): 0.026
- photoluminescence quantum yield (in CC#N): 0.004
- photoluminescence quantum yield (in CCOC(C)=O): 0.014
- photoluminescence quantum yield (in CN(C)C=O): 0.006
- photoluminescence quantum yield (in CO): 0.001
- photoluminescence quantum yield (in ClC(Cl)Cl): 0.022
Structure (SMILES): O=C(O)c1ccccc1Nc1cccc(C(F)(F)F)c1

- photoluminescence quantum yield (in ClCCl): 0.49
Structure (SMILES): O=c1oc2ccccc2cc1-c1ccc(-c2ccc(-c3cc4ccccc4oc3=O)cc2)cc1

- photoluminescence quantum yield (in CC#N): 0.4
- photoluminescence quantum yield (in CCO): 0.66
- photoluminescence quantum yield (in CN(C)C=O): 0.42
- photoluminescence quantum yield (in CO): 0.7
- photoluminescence quantum yield (in O): 0.36 and 0.31
Structure (SMILES): CCN(CC)c1ccc2c(-c3ccccc3C(=O)[O-])c3ccc(=[N+](CC)CC)cc-3oc2c1

Structure (SMILES): N#Cc1cc(C#N)cc(-n2c3ccccc3c3cc(-c4ccc5c(c4)c4ccccc4n5-c4cc(C#N)cc(C#N)c4)ccc32)c1
- photoluminescence quantum yield (in Cc1ccccc1): 0.5
- photoluminescence quantum yield (in O=P(c1ccccc1)(c1ccccc1)c1ccccc1Oc1ccccc1P(=O)(c1ccccc1)c1ccccc1): 0.58
